In PubChem BioAssay AID1918932 (Molecular Pharmacology Branch, DTP, NCI, 2023):

Tested on: 171881-019-R-J1-PDC complex spheroid viability
Experiment: Anticancer human tumor 171881-019-R-J1-PDC patient-derived invasive breast carcinoma cell line growth inhibition
Details: for IC50: curve of first compound; for viability, T/C: stronger effect = lower value
Procedure, shortened: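 Drug combinations with the LSD1 inhibitor iadademstat tested on tumor cells co-cultured as spheroids with endothelial cells and mesenchymal stem cells. Concentrations descended in half-log increments from clinical Cmax or 10 microM.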
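Note: spheroids exposed to agents for 7 days after 3 days growth.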

CCc1c2c(nc3ccc(O)cc13)-c1cc3c(c(=O)n1C2)COC(=O)[C@]3(O)CC + NC1CCC(NC2CC2c2ccccc2)CC1
IC50 (second compound 0.1 µM): 0.00345 µM | IC50 (second compound 0.316 µM): 0.00388 µM | IC50 (second compound 1 µM): 0.00487 µM | IC50 (second compound 3.16 µM): 0.00552 µM | IC50 (second compound 10 µM): 0.00575 µM | viability, T/C (second compound 0.1 µM, first compound 0.000949 µM): 64.2% | viability, T/C (second compound 0.1 µM, first compound 0.003 µM): 53.5% | viability, T/C (second compound 0.1 µM, first compound 0.00949 µM): 32.2% | viability, T/C (second compound 0.1 µM, first compound 0.03 µM): 20.5% | viability, T/C (second compound 0.1 µM, first compound 0.0949 µM): 8.51% | viability, T/C (second compound 0.1 µM, first compound 0.3 µM): 6.45% | viability, T/C (second compound 0.316 µM, first compound 0.000949 µM): 67.5% | viability, T/C (second compound 0.316 µM, first compound 0.003 µM): 55.5% | viability, T/C (second compound 0.316 µM, first compound 0.00949 µM): 33.2% | viability, T/C (second compound 0.316 µM, first compound 0.03 µM): 20.6% | viability, T/C (second compound 0.316 µM, first compound 0.0949 µM): 9.31% | viability, T/C (second compound 0.316 µM, first compound 0.3 µM): 6.46% | viability, T/C (second compound 1 µM, first compound 0.000949 µM): 69.5% | viability, T/C (second compound 1 µM, first compound 0.003 µM): 61.4% | viability, T/C (second compound 1 µM, first compound 0.00949 µM): 34.8% | viability, T/C (second compound 1 µM, first compound 0.03 µM): 22.4% | viability, T/C (second compound 1 µM, first compound 0.0949 µM): 10.3% | viability, T/C (second compound 1 µM, first compound 0.3 µM): 7.43% | viability, T/C (second compound 3.16 µM, first compound 0.000949 µM): 75% | viability, T/C (second compound 3.16 µM, first compound 0.003 µM): 65.3% | viability, T/C (second compound 3.16 µM, first compound 0.00949 µM): 35.5% | viability, T/C (second compound 3.16 µM, first compound 0.03 µM): 21.9% | viability, T/C (second compound 3.16 µM, first compound 0.0949 µM): 10.3% | viability, T/C (second compound 3.16 µM, first compound 0.3 µM): 7.23% | viability, T/C (second compound 10 µM, first compound 0.000949 µM): 86% | viability, T/C (second compound 10 µM, first compound 0.003 µM): 66.8% | viability, T/C (second compound 10 µM, first compound 0.00949 µM): 35.6% | viability, T/C (second compound 10 µM, first compound 0.03 µM): 21.8% | viability, T/C (second compound 10 µM, first compound 0.0949 µM): 9.69% | viability, T/C (second compound 10 µM, first compound 0.3 µM): 6.81%

CC(C)c1c(-c2ccccc2)nc2c(C#N)c[nH]n2c1=O + NC1CC1c1ccc(-c2cccc(O)c2)cc1
IC50 (second compound 0.1 µM): 4.99 µM | IC50 (second compound 0.316 µM): 5.4 µM | IC50 (second compound 1 µM): 5.36 µM | IC50 (second compound 3.16 µM): 5.45 µM | IC50 (second compound 10 µM): 4.95 µM | viability, T/C (second compound 0.1 µM, first compound 0.0316 µM): 104% | viability, T/C (second compound 0.1 µM, first compound 0.1 µM): 103% | viability, T/C (second compound 0.1 µM, first compound 0.316 µM): 93% | viability, T/C (second compound 0.1 µM, first compound 1 µM): 87.3% | viability, T/C (second compound 0.1 µM, first compound 3.16 µM): 72.1% | viability, T/C (second compound 0.1 µM, first compound 10 µM): 19.8% | viability, T/C (second compound 0.316 µM, first compound 0.0316 µM): 102% | viability, T/C (second compound 0.316 µM, first compound 0.1 µM): 102% | viability, T/C (second compound 0.316 µM, first compound 0.316 µM): 95.8% | viability, T/C (second compound 0.316 µM, first compound 1 µM): 90.4% | viability, T/C (second compound 0.316 µM, first compound 3.16 µM): 75.5% | viability, T/C (second compound 0.316 µM, first compound 10 µM): 22.1% | viability, T/C (second compound 1 µM, first compound 0.0316 µM): 108% | viability, T/C (second compound 1 µM, first compound 0.1 µM): 101% | viability, T/C (second compound 1 µM, first compound 0.316 µM): 93.9% | viability, T/C (second compound 1 µM, first compound 1 µM): 89.5% | viability, T/C (second compound 1 µM, first compound 3.16 µM): 75.7% | viability, T/C (second compound 1 µM, first compound 10 µM): 22.5% | viability, T/C (second compound 3.16 µM, first compound 0.0316 µM): 103% | viability, T/C (second compound 3.16 µM, first compound 0.1 µM): 98.6% | viability, T/C (second compound 3.16 µM, first compound 0.316 µM): 97% | viability, T/C (second compound 3.16 µM, first compound 1 µM): 87.4% | viability, T/C (second compound 3.16 µM, first compound 3.16 µM): 77.1% | viability, T/C (second compound 3.16 µM, first compound 10 µM): 22% | viability, T/C (second compound 10 µM, first compound 0.0316 µM): 85.7% | viability, T/C (second compound 10 µM, first compound 0.1 µM): 81.9% | viability, T/C (second compound 10 µM, first compound 0.316 µM): 81.4% | viability, T/C (second compound 10 µM, first compound 1 µM): 80.5% | viability, T/C (second compound 10 µM, first compound 3.16 µM): 70.6% | viability, T/C (second compound 10 µM, first compound 10 µM): 18.1%
